How the values were obtained:
[1] = system: human peripheral blood mononuclear cell (PBMC); experiment: antigen recall assay (IFNγ secretion by CMV-stimulated PBMC, ELISA); format: cell-based; conditions: co-treatment: 1 µM HSD11B1 inhibitor + 1 µg/ml anti PD-1 (G4K), compared to anti-PD-1 or HSD11B1 inhibitor alone, 1 µg/ml CMV antigen, 50 ng/ml cortisone, 6 days, Fig. 1
Source text: Response to immunotherapy rely on critical biological steps including antigen presentation and T cell activation. Therefore, the therapeutic potential of combining immunotherapy with HSD11B1 inhibition was investigated in an antigen recall assay as described below. Antigen recall assay is the gold standard in vitro method to assess the bioactivity of immune checkpoint inhibitors because it measures at the same time the potential of antigen presenting cells to activate T cell and the actual T cell activation, taking into account thereby the two critical mechanisms required for an optimal response to immunotherapy. The level of IFNγ secreted in this human immune cell-based assay is considered as a good indicator of the T cells activation to immunomodulatory molecules. Cryopreserved human peripheral blood mononuclear cell (PBMC) isolated from cytomegalovirus (CMV) positive heathy donors were thawed in a 37°C water bath and seeded in round bottom 96 well plates at 2 X 10^5 cells/well in 150 µL final volume of RPMI media supplemented with 10% fetal bovin serum, 1% non-essential amino acids, 0.01M Hepes, 1% Penicilin/Streptomycin, 1% L-glutamine and 50 ng/ml cortisone). […] Plates were incubated at 37°C, 6% CO2. After 6 days, supernatants were assayed for IFNγ by ELISA (Biolegend).

[2] = system: GFP-expressing Renca cells; experiment: murine T cell-mediated tumor cell-killing assay (growth of GFP Renca cells, Incucyte imaging); format: cell-based; conditions: combination: 10 µM HSD11B1 inhibitor + anti-PD-1 (mouse), compared to single treatments; 200 ng/ml 11-DHC; BMDCs, OT-I CD8 T cells, SIINFEKL loaded GFP Renca cells; Fig. 2
Method: Another critical biological mechanism required for an optimal response to immunotherapy of cancer is the capacity of T cells to kill the tumor target cells. The therapeutic potential of combining immunotherapy with HSD11B1 inhibition for the treatment of cancer was therefore assessed in a murine T cell-mediated tumor cell-killing assay. Wild type C57BL/6J murine bone marrow progenitors cells were maintained with 20 ng/ml GMCSF (Peprotech) to induce differentiation into bone marrow derived dendritic cells (BMDCs) for 6 days. At day 6, 2 X 10^4 BMDCs/well together with 2 X 10^3 Renca tumor cells/well were seeded in flat bottom 96 well plate in RPMI 1640 supplemented with 10% FBS, 1% Penicillin/streptomycin, 1% L-glutamine, […] betamercaptoethanol and 0.5% of sodium pyruvate, 32 ng/ml R848 (Invivogen) and 25 µg/ml ovalbumin (Invivogen). After 24 hours, cell supernatant was removed and 1x10^5 OT-I CD8 T cells/well were added in very low endotoxin RPMI 1640 medium supplemented with 10% fetal bovine serum, 1% L-glutamine, 1% penicillin-streptomycin, 1% sodium-pyruvate, 1% glutamine, 1%, non-essential amino acids and […] beta-mercaptoethanol. After 24 hours, 5x10^3 H2kb-recombined; SEQ ID NO: 1 […] (Invivogen) loaded-GFP-expressing Renca cells/well were added. The growth of GFP Renca cells was measured and quantified in real time by cell imaging using the Incucyte technology. […]

Compound	level on IFNγ [1]	growth of tumor cells [2]
O=C(O)CC1CC2(CCN(C(=O)NC3C4CC5CC(C4)CC3C5)CC2)c2c(Br)cccc21 (racemic) [10J, (+/-)-2-(7-bromo-1'-((2-adamantyl)carbamoyl)-2,3-dihydrospiro [indene-1,4'-piperidine]-3-yl) acetic acid]	significantly increased	–
CC(C)(O)c1cccn2c(C3(c4ccc(Cl)cc4)CC3)nnc12 [BMS-823778, 2-[3-[1-(4-chlorophenyl)cyclopropyl]-[1,2,4]triazolo[4,3-a]pyridin-8-yl]propan-2-ol]	significantly increased	inhibited the growth of tumor cells more efficiently than the single treatments
CC1(C)[C@@H](OC(=O)CCC(=O)O)CC[C@]2(C)[C@H]3C(=O)C=C4[C@@H]5C[C@@](C)(C(=O)O)CC[C@]5(C)CC[C@@]4(C)[C@]3(C)CC[C@@H]12 [carbenoxolone, (2S,4aS,6aR,6aS,6bR,8aR,10S,12aS,14bR )-10-(3-carboxypropanoyloxy)-2,4a,6a,6b,9,9,12a-heptamethyl-13-oxo-3,4,5,6,6a,7,8,8a,10,11,12,14b-dodecahydro-1H-picene-2-carboxylic acid]	significantly increased	–
